pIC50: −log10 of the molar value. Where a SMILES comes first, the peptide text is derived from it. Where no end group is shown, it is not given here.
Legend:
[1] = molecular target: T1, binding of α4 β1 integrin to VCAM-1 (Homo sapiens, UniProt P05556+P13612); assay: Cell-protein assay: calcein-labelled Ramos cells binding to VCAM-mouse IgG fusion protein on magnetic beads; format: cell-based; conditions: for peptide concentration at which binding of α4 β1 to VCAM-1 is significantly inhibited: less than about 100, assay format not stated
T1 construct: endogenous in cells; host or cells: Ramos (human B-cell line) for endogenous α4β1; the VCAM-mouse IgG fusion was made in house, secreted from transfected COS cells and captured on goat anti-mouse IgG Dynal beads
Text: The VCAM-1 binding assays involved assessing the ability of cells that express α4 β1 to bind cells expressing VCAM (cell-cell assay) or to bind purified VCAM protein (cell-protein assay). The integrin-expressing cell types used in these assays included the human B-cell line, Ramos, and the human promyelocytic line, HL-60. The cell-cell assay was used to compare the relative potency of peptides at a single dose. The cell-protein assay was used to generate dose response curves and determine IC50 values.
An expression vector was designed such that a region of VCAM known to bind the integrin was-expressed as a fusion protein with mouse IgG. A cDNA containing the two N-terminal domains of human VCAM was generated by the polymerase chain reaction (PCR) from a full length VCAM cDNA. Similarly, a cDNA containing the hinge, CH2 and CH3 regions of mouse IgG2A was amplified by PCR from cDNA made from total RNA isolated from the hybridoma cell line 402C10. The VCAM cDNA was ligated to the mouse IgG cDNA and cloned into a mammalian expression vector. […] The media was collected and active protein was purified by immunoprecipitation using Dynal magnetic polystyrene beads coated with goat anti-mouse IgG. Following immunoprecipitation, the beads bound Ramos cells that expressed the integrin α4 β1.
Ramos cells were fluorescently labeled with calcein AM (Molecular Probes) and resuspended in 1 ml of binding buffer (Hanks' balanced salt solution, pH 7.4, 1.0 mM CaCl2, 1.0 mM MgCl2 and 1.0 mM MnCl2). The beads (10 μl, 4×10^6 beads/ml) were placed in wells of a 96-well microtiter dish with 10 μl of peptide at various concentrations. The beads were incubated with 10 μl of labeled cells (10^7 cells/ml) for 10 min at room temperature. Following immobilization of the beads onto the plastic with a magnet, unbound cells were removed by washing three times with binding buffer. The remaining bound cells were lysed in 50 mM Tris, pH 7.4, 5.0 mM EDTA, 1.0% NP-40 and quantitated by fluorimetry using a Millipore Cytofluor 2350 fluorimeter. Dose response curves were calculated and IC50 values determined. Peptides having the amino acid residue sequences of SEQ ID NOs:8-102 were tested for their ability to inhibit the binding of α4 β1 integrin to VCAM-1.

[2] = molecular target: T2, binding of the integrin α4 β1 to VCAM (Homo sapiens, UniProt P05556+P13612); assay: Cell-cell assay: 35S-labelled Ramos cells binding to VCAM expressing CHO cells; format: cell-based; conditions: single concentration at which SEQ ID NO:9 gives approximately 50% inhibition of adhesion; SEQ ID NO:9 = 1.00; >2.00 indicates little or no inhibition of VCAM-α4 β1 binding
T2 construct: endogenous in cells; host or cells: Ramos (human B-cell line) for endogenous α4β1; CHO cells stably transfected with human VCAM cDNA for the counter-receptor
Text: The VCAM-1 binding assays involved assessing the ability of cells that express α4 β1 to bind cells expressing VCAM (cell-cell assay) or to bind purified VCAM protein (cell-protein assay). The integrin-expressing cell types used in these assays included the human B-cell line, Ramos, and the human promyelocytic line, HL-60. The cell-cell assay was used to compare the relative potency of peptides at a single dose. The cell-protein assay was used to generate dose response curves and determine IC50 values. A human VCAM cDNA was amplified by the polymerase chain reaction (PCR) from cDNA reverse transcribed from RNA isolated from human umbilical vein endothelial cells. The VCAM cDNA was ligated into a mammalian expression vector and electroporated into chinese hamster ovary (CHO) cells. Cells were grown in G418 selective media and clones expressing high levels of VCAM were selected by FACS analysis. VCAM expressing CHO cells and nontransfected CHO cells were plated in 48 well cluster dishes at a density of 50,000 cells/well 24 hour prior to assay. The dishes were washed with binding buffer (DMEM, 1% BSA, 1.0 mM MnCl2, 0.02% sodium azide, pH 7.4) immediately prior to assay. […] Unbound cells were removed by washing with binding buffer and the remaining bound cells were lysed with 50 mM Tris, pH 8.0, 150 mM NaCl, 1% SDS and transferred to scintillation vials for quantitation.

T1 sequence (P13612 34-1032): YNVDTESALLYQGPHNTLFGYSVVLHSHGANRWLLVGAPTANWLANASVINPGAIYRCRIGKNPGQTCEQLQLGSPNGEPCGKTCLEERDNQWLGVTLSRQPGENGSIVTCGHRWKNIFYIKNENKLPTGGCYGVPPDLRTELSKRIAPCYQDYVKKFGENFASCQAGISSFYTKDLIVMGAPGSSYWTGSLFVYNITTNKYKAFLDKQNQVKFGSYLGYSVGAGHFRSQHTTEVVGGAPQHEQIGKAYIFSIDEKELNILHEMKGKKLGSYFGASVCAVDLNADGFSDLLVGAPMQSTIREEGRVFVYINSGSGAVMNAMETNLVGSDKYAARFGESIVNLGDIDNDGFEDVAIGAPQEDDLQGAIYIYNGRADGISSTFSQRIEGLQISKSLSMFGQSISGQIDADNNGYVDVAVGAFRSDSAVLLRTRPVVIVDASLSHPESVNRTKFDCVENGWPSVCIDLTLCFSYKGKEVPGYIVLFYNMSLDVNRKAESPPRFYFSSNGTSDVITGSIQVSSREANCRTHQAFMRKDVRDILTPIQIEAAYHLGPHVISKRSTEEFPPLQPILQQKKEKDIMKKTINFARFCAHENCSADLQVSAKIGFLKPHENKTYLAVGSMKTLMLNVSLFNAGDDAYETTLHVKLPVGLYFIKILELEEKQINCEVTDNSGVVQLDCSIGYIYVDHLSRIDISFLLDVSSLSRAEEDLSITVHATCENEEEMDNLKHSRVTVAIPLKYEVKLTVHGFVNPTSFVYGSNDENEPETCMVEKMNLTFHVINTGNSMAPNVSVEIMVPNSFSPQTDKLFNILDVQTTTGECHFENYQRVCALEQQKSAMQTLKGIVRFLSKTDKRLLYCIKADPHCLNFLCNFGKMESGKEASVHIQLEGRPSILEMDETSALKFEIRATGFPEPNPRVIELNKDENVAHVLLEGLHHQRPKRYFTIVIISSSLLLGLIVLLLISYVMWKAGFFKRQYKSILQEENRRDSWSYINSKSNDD
T1 sequence (P05556 21-798): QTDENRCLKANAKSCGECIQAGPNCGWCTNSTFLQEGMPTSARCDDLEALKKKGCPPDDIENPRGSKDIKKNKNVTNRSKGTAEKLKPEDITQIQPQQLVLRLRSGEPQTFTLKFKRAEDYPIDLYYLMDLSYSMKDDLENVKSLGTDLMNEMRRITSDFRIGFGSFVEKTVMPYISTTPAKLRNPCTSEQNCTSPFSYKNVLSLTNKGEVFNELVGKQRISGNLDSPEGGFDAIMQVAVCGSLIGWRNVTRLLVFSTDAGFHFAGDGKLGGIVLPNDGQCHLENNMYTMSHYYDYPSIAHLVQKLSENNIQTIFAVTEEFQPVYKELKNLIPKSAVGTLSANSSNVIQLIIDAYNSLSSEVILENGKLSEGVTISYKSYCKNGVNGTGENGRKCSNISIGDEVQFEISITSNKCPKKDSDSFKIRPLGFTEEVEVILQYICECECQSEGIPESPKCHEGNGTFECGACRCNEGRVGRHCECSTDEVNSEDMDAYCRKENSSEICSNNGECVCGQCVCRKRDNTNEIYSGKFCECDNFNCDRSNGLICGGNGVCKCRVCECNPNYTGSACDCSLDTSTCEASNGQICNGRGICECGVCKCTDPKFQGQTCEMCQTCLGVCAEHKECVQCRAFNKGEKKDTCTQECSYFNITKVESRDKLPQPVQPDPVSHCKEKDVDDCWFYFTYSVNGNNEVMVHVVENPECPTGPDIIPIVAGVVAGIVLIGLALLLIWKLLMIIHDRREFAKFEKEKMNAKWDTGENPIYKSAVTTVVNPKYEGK
T2 sequence (P13612 34-1032): as the sequence (P13612 34-1032) above
T2 sequence (P05556 21-798): as the sequence (P05556 21-798) above

peptide concentration at which binding of α4 β1 to VCAM-1 is significantly inhibited [1]	relative quantity of adhered cells in relationship to peptide SEQ ID NO:9 [2]	pIC50 ([1]; independent cell-protein based assays)	Compound
less than 100 μM	–	–	CC(C)C[C@H](NC(=O)[C@@H](N)Cc1ccccc1)C(=O)N[C@@H](CC(=O)O)C(=O)N[C@H](C(N)=O)C(C)C [SEQ ID NO:25, Phe-Leu-Asp-Val-amide] (H-FLDV-NH2)
less than 100 μM	–	–	EWLDV-NH2 [SEQ ID NO:13, Glu-Trp-Leu-Asp-Val-amide]
less than 100 μM	–	–	EWLDV-OH [SEQ ID NO:14, Glu-Trp-Leu-Asp-Val-acid]
–	1.00	4.52	GPEWLDVP-NH2 [SEQ ID NO:9, Gly-Pro-Glu-Trp-Leu-Asp-Val-Pro-amide]
